Results on 1 molecule are retold here after patent US9067894B1, “Compound, composition, and method of activating GIRK potassium channel and use of same for treating conditions of interest” (Vanderbilt University, priority 2013, dated 2015).

For one assay, the target named is T1, GIRK1/4 (Homo sapiens, UniProt P48544+P48549).
T1 construct: expressed in transfected cells; host or cells: HEK-293
T1 sequence (P48549 1-501): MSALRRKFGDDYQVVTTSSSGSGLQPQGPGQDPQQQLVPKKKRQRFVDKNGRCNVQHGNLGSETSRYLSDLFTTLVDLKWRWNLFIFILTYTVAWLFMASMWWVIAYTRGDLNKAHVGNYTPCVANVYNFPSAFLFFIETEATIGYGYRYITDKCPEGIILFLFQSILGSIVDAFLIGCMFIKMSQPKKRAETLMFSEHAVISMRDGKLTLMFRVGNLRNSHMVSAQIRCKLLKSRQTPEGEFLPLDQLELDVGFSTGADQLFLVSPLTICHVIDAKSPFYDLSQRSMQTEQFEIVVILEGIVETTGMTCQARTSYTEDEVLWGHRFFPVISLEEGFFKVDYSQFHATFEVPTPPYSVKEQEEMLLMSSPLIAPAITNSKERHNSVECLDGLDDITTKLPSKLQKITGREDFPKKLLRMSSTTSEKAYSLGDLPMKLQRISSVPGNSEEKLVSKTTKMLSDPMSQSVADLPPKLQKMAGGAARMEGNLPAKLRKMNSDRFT
T1 sequence (P48544 1-419): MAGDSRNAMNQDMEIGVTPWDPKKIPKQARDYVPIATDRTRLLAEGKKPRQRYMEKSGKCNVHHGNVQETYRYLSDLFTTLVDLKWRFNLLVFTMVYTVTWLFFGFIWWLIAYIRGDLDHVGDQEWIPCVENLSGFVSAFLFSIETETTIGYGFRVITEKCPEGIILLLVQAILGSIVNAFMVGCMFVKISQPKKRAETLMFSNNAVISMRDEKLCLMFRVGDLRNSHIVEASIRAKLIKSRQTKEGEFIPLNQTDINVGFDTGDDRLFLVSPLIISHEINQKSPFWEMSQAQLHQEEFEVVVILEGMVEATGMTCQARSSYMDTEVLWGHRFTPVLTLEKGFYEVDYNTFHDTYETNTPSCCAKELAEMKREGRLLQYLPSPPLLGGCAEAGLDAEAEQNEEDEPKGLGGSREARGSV
The assay is described as follows: Thallium flux assay, HEK-293 cells expressing GIRK1/4. It is filed as cell-based. The following applies: cell line GIRK1-4; average ± SEM. From the text: Cell Line Construction and Cell Culture. HEK-293 cells co-expressing human GIRK1/2 and rat mGlu8 were generated as previously described (Niswender et al., 2008). A HEK-293 cell line (ATCC, Manassas, Va.) expressing human GIRK1 and human GIRK2 was constructed by transfecting HEK-293 cells with GIRK1 and GIRK2 (Origene, Rockville, Md.) cloned into the pBudCE4.1 vector (Life Technologies, Carlsbad, Calif.) using FuGene 6 (Promega, Madison, Wis.) transfection reagent. Unless otherwise noted, other ion channel-expressing cells were prepared by transfecting HEK-293 cells with individual or combinations of subunits: GIRK1, pCMV6-A-BSD; GIRK2, pCMV6-A-puro; GIRK3, pCMV6-A-hygro; GIRK4, pCMV6-A-AC; Kv7.4, pIRESneo3. The Kir2.1 and hERG-expressing cell lines were made by transfecting T-REx-293 cells (Life Technologies, Carlsbad, Calif.) with Kir2.1 and Kv11.1, respectively, cloned into pcDNA5TO. Monoclonal cell lines were produced by limiting-dilution cloning of antibiotic-resistant cells and functional selection using the thallium flux assay described below. Unless otherwise noted, cells were maintained in Minimal Essential Medium, Alpha Medium (Mediatech, Manassas, Va.) supplemented with 10% fetal bovine serum (Sigma-Aldrich, Saint Louis, Mo.) and GlutaGro (Mediatech, Manassas, Va.), referred to henceforth as cell culture medium. […]

Another assay deals with T2, Adenosine A1 (Homo sapiens, UniProt P30542).
T2 construct: Ricerca (contract assay)
The experiment in a line: Radioligand displacement (Ricerca). The format is binding.

The target of assay [1] is T3, Glutamate (NMDA, glycine) (Rattus norvegicus, UniProt P35439).
T3 construct: Ricerca
The experiment in a line: Radioligand displacement (Ricerca). It is filed as binding. Background: Displacement assays read how much labelled ligand stays bound in the presence of the test substance.

Another assay addresses T4, Transporter, DAT (Homo sapiens, UniProt Q01959).
T4 construct: Ricerca (contract panel)
The experiment in a line: Radioligand displacement (Ricerca). It is filed as binding.

The term EC50 denotes the concentration that produces a half-maximal response. One may read the inhibition as the relative decrease from the control value, in per cent.

T4 sequence (Q01959 whole entry): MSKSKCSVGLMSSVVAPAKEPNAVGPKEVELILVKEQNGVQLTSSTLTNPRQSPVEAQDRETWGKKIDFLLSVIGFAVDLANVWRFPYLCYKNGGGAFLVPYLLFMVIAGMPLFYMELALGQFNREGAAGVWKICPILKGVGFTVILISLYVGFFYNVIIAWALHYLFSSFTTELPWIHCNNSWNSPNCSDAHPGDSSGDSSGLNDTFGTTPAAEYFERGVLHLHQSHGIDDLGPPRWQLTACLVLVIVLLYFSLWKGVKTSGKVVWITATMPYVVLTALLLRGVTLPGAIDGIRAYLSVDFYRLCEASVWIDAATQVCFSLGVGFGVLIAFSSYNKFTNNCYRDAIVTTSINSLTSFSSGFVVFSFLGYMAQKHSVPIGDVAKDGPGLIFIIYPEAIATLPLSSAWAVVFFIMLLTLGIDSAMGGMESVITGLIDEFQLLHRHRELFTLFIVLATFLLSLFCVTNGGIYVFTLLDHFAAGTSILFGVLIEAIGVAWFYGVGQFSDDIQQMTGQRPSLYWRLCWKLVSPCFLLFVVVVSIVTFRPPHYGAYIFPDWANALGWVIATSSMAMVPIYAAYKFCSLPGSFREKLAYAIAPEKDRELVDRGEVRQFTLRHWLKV
T2 sequence (P30542 whole entry): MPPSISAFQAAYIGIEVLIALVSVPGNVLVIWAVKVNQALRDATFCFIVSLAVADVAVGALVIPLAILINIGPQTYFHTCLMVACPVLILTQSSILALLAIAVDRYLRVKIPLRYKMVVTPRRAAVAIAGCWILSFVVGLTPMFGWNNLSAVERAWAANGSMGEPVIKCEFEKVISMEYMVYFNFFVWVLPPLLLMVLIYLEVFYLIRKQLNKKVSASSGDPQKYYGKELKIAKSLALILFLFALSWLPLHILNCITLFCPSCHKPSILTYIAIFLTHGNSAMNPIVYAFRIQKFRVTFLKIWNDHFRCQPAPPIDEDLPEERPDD

Regarding `Cc1cc(NC(=O)Nc2ccc(F)c(F)c2)n(-c2ccccc2)n1` [VU0456810, 1-(3,4-difluorophenyl)-3-(3-methyl-1-phenyl-1H-pyrazol-5-yl)urea], the concentration for a half-maximal effect (EC50) on GIRK1/4 turned out to be 887 ± 266 nM. Besides, the “EC50 Thallium Flux” value at GIRK1/4 is on record as “able to activate”. Further, the inhibition at 10 µM on Adenosine A1 is 6%; in assay [1] it was -25%; on Transporter, DAT it was 12%.
